Test [1] has as its target T1, rat plasma vitamin D binding protein (Rattus norvegicus, UniProt P04276).
T1 construct: from tissue; host or cells: rat plasma
T1 sequence (P04276 17-476): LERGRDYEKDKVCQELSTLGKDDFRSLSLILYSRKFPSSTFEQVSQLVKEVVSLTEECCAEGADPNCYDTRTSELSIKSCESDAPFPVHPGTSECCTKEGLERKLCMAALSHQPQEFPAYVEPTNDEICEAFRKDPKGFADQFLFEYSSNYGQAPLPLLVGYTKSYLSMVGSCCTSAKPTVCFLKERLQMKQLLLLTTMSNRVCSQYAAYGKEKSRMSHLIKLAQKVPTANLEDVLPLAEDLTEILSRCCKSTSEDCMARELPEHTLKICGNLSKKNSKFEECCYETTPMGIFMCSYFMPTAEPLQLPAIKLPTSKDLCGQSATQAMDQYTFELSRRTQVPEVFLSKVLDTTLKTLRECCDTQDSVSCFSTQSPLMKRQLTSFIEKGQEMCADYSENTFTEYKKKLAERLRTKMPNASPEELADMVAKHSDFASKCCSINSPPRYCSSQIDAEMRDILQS
Briefly: Affinity for rat plasma vitamin D binding protein (3H-25-hydroxyvitamin D3 competition, dextran coated charcoal). The settings on record: for 50% binding ability: amount of the test compound providing B/B0=0.5, 3H-25-hydroxyvitamin D3 as radioligand. The method, then: A solution of a chick small intestine vitamin D receptor, or a solution of a rat plasma vitamin D binding protein was added, and the resulting mixture was left to stand. Then, a dextran coated charcoal solution was added, and the mixture was left to stand in ice cooling, and centrifuged. To the supernatant, a liquid scintillator was added, and the mixture was measured for radioactivity. B/B0 (B=the value of radioactivity measured upon addition of the test compound, B0=the value of radioactivity measured without addition of the test compound) was calculated to find the concentration of the test compound at which B/B0=0.5.
(§1) (50% binding ability refers to the amount of the test compound providing B/B0=0.5)

The target in test [2] is T2, chick small intestine vitamin D receptor (Gallus gallus, UniProt O42392).
T2 construct: A solution of a chick small intestine vitamin D receptor; from tissue; host or cells: chick small intestine
T2 sequence (O42392 1-451): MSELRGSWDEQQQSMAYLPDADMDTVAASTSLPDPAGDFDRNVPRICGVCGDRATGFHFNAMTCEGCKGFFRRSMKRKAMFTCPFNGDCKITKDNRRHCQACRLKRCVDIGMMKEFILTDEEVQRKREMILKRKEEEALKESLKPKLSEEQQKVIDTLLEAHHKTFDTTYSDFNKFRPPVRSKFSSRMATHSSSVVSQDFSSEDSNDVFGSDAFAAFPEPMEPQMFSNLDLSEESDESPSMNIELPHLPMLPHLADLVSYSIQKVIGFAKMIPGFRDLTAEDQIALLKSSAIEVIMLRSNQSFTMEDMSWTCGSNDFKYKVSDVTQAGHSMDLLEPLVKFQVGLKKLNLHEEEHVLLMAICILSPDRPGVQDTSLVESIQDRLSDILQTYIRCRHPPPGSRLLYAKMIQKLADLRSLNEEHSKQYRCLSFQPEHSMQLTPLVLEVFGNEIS
In words: Affinity for chick small intestine vitamin D receptor (3H-1α,25-dihydroxyvitamin D3 competition, dextran coated charcoal). The note with it: amount of the test compound providing B/B0=0.5; 3H-1α,25-dihydroxyvitamin D3 as radioligand. In kind it is binding. The method, then:
A solution of a chick small intestine vitamin D receptor, or a solution of a rat plasma vitamin D binding protein was added, and the resulting mixture was left to stand. Then, a dextran coated charcoal solution was added, and the mixture was left to stand in ice cooling, and centrifuged. To the supernatant, a liquid scintillator was added, and the mixture was measured for radioactivity.
as §1

As to `C=C1CC[C@H](O)C/C1=C/C=C1\CCC[C@]2(C)[C@@H]([C@H](C)CCCC(C)(C)O)CC[C@@H]12` [25-Hydroxyvitamin D3, 25-hydroxyvitamin D3], the Ratio in test [1] (affinity relative to 1,25-dihydroxyvitamin D3 = 1) is 129. Further, in test [1], the 50% binding ability is 0.209 ng.

Take `C=C1/C(=C\C=C2/CCC[C@@]3(C)C2CC[C@@H]3[C@H](C)CCCC(C)(C)O)CC(O)C(OCCC(=O)OC)C1O` (stereo partly drawn) [Compound 2, 2β-(2-methoxycarbonylethyloxy)-1α, 3β,25-trihydroxy-9,10-secocholesta-5,7,10(19)-triene]: the figures for the 50% binding ability in test [1] and in test [2] were 4 ng and 0.455 ng, respectively.

The values are drawn from patent US6410523B1, “Vitamin D derivatives substituted at the 2beta-position” (Chugai Seiyaku Kabushiki Kaisha, priority 1998, dated 2002).
